Data reported in PMC6268235, “A New Butanolide Compound from the Aerial Part of Lindera akoensis with Anti-inflammatory Activity” (Molecules, 2012).

Legend:
[1] = system: LPS-stimulated production of nitrite in RAW264.7 cell; test: Inhibition of LPS-stimulated nitrite (NO) production, Griess reaction; assay type: cell-based, murine; details: for IC50: Mus musculus, RAW264.7, RAW 264.7 cells, LPS 100 ng/mL, 24 h, Griess reaction, read-out: IC50 (decrease nitrite of LPS-stimulated production)
Source text: NO, produced from L-arginine by NO synthase, has various biological actions, e.g., as a defense and regulatory molecule for homeostatic equilibrium. However, in pathophysiologic conditions, such as inflammation, there is an increased production of NO by inducible NO synthase (iNOS). Macrophages have been expected to be an origin of inflammation, because they contain various chemical mediators that may be responsible for several inflammatory stages. The inhibitory activity toward NO production, induced by lipopolysaccharides (LPS), by murine macrophage-derived RAW264.7 cells was assayed.
(§1) A murine macrophage cell line RAW264.7 (BCRC No. 60001) was purchased from the Bioresources Collection and Research Center (BCRC, Hsinchu, Taiwan) of the Food Industry Research and Development Institute (Hsinchu, Taiwan). Cells were cultured in plastic dishes containing Dulbecco’s Modified Eagle Medium (DMEM, Sigma, St. Louis, MO, USA) supplemented with 10% fetal bovine serum (FBS, Sigma) in a CO2 incubator (5% CO2 in air) at 37 °C and subcultured every 3 days at a dilution of 1:5 using 0.05% trypsin-0.02% EDTA in Ca^2+-, Mg^2+-free phosphate-buffered saline (DPBS).
NO production was indirectly assessed by measuring the nitrite levels in the cultured media and serum determined by a colorimetric method based on the Griess reaction. The cells were incubated with butanolides (0, 3.125, 6.25, 12.5, 25 and 50 μg/mL) in the presence of LPS (100 ng/mL) at 37 °C for 24 h. Then, cells were dispensed into 96-well plates, and 100 μL of each supernatant was mixed with the same volume of Griess reagent (1% sulfanilamide, 0.1% naphthylethylenediamine dihydrochloride and 5% phosphoric acid) and incubated at room temperature for 10 min, the absorbance was measured at 540 nm with a Micro-Reader (Molecular Devices). Serum samples were diluted four times with distilled water and deproteinized by adding 1/20 volume of zinc sulfate (300 g/L) to a final concentration of 15 g/L. After centrifugation at 10,000 × g for 5 min at room temperature, 100 μL supernatant was applied to a microtiter plate well, followed by 100 μL of Griess reagent. After 10 min of color development at room temperature, the absorbance was measured at 540 nm with a Micro-Reader. By using sodium nitrite to generate a standard curve, the concentration of nitrite was measured form absorbance at 540 nm.
IC50 values were estimated using a non-linear regression algorithm (Sigma Plot 8.0; SPSS Inc. Chicago, IL, USA). Statistical evaluation was carried out by one-way analysis of variance (ANOVA followed by Scheffe’s multiple range tests).

RAW264.7 cells = test: Cell viability (MTT) in the presence of LPS; assay type: cell-based; details: RAW 264.7 cells, 100 ng/mL LPS, 24 h
Description: as §1
Cells (2 × 10^5) were cultured in 96-well plate containing DMEM supplemented with 10% FBS for 1 day to become nearly confluent. Then cells were cultured with compounds 1–5 in the presence of 100 ng/mL LPS (lipopolysaccharide) for 24 h. After that, the cells were washed twice with DPBS and incubated with 100 μL of 0.5 mg/mL MTT for 2 h at 37 °C testing for cell viability. The medium was then discarded and 100 μL dimethyl sulfoxide (DMSO) was added. After 30-min incubation, absorbance at 570 nm was read using a microplate reader (Molecular Devices, Sunnyvale, CA, USA).

Compound | IC50 [1] [µM] | LD50 (cell viability) (RAW264.7 cells) [µM] | anti-inflammatory activity (in words) ([1]; RAW264.7 cells, LPS-stimulated nitrite production)
CCCCCCCCCCC=CC1C(=O)OC(C)C1O (stereo not drawn) [Compound 1, 3β-((E)-dodec-1-enyl)-4β-hydroxy-5β-methyldihydrofuran-2-one] | 44.3 | 72.3 | 
CCCCCCCCCCCC/C=C/C1=CC(C)OC1=O (centres unmarked) [Compound 2, Akolactone A] | 180 | >211.9 | 
C=CCCCCCCCCC/C=C1\C(=O)OC(C)[C@@H]1O (stereo partly drawn) [Compound 3, (3Z,4α,5β)-3-(dodec-11-enylidene)-4-hydroxy-5-methylbutalactone] | 2.4 | 49.3 | 
C=CCCCCCCCCC/C=C1/C(=O)OC(C)[C@@H]1O (stereo partly drawn) [Compound 4, (3E,4α,5β)-3-(dodec-11-enylidene)-4-hydroxy-5-methylbutalactone] | 1.4 | 67.1 | 
C=C1OC(=O)/C(=C/CCCCCCCCCCC)[C@H]1O [Compound 5, dihydroisoobtusilactone] | 97.9 | >178.6 | no significant active
